Where two headings read alike, the source gives them in different places.
Legend:
C57BL/6J = test: Randomized controlled trial in mice, compounds in Lipoderm applied daily to right flank (Example 1); type: in vivo; conditions: for Local increase in subcutaneous fat / asymmetry between flanks: following 24 days of therapy, right flank treated, left flank untreated
Protocol: The arms were as follows: vehicle (Lipoderm®), a thiazolidinedione (pioglitazone), harmine, an orexigenic compound (megestrol acetate), and efavirenz. Each compound was combined in the percutaneous Lipoderm® formulation at an equimolar concentration (5 mM). The Lipoderm® vehicle is adapted to deliver the respective compound percutaneously, i.e., across the skin and into subcutaneous fat. The formulations were applied daily to the right flank of each animal, whereas the left flank was used as an untreated control.
A randomized controlled trial was conducted on C57BL/6J. Male mice approximately six weeks old were prospectively randomized into groups and assigned to the following treatment conditions (n=5 animals per group):
Animals were shaved and depilated over the flanks at the start of the study.
Animals were kept in identical conditions and fed ab libitum with a standardized high-fat diet (70% kcal fat). Animals were weighed three times weekly. Following 24 consecutive days of treatment, mice were sacrificed and samples of skin and adjacent fat from the treated flanks are taken for histologic examination.

patient = test: Clinical application for augmentation of the buttocks (Example 9); type: in vivo, human; conditions: 10 mg/ml in Lipoderm daily, after 6 months; contemplated
Protocol: The following description exemplifies a clinical application of percutaneous administration of an orexigenic pregnane derivative for augmentation of the buttocks. A female or male patient wishes to undergo a buttocks augmentation procedure but is concerned about the risks of surgery. The physician prescribes a daily application of megestrol acetate (for example, 10 mg/ml in Lipoderm®) to the buttocks.

Gottingen minipigs = conditions: for Increase over Placebo in subcutaneous fat thickness, MEAN: mean of 24 sites, 42 days
Protocol: (§1) A prospective controlled trial was performed in 4 Gottingen minipigs (2 males, 2 females). Hair on the back was clipped. […] An equivalent Vehicle Treatment Area was marked on the left side of the animal, such that the two treatment areas were anatomically equivalent. […] After 42 days of treatment, plasma pharmacokinetics (PK) was assessed on all animals by Liquid Chromatography/Tandem Mass Spectrometry. Necropsy was done and samples of skin, subcutaneous fat, and muscle were collected en bloc from each treatment area in a controlled fashion. […] Table 5 presents the thicknesses of subcutaneous fat on each of six treated and control (vehicle) locations, by animal. […] Table 6 compares plasma PK following percutaneous administration (present study) with plasma PK following oral administration in humans.

[1] = Plasma pharmacokinetics after percutaneous administration in minipigs (Example 4); conditions: percutaneous versus oral
Protocol: as §1

With `O=C1Nc2ccc(Cl)cc2[C@@](C#CC2CC2)(C(F)(F)F)O1` [Efavirenz] the “Local increase in subcutaneous fat / asymmetry between flanks” value (C57BL/6J) was “did not exhibit any increase in fat or asymmetry between the two flanks”.

With `COc1ccc2c(c1)[nH]c1c(C)nccc12` [Harmine] the “Local increase in subcutaneous fat / asymmetry between flanks” value (C57BL/6J) was “did not exhibit any increase in fat or asymmetry between the two flanks”.

For `CC(=O)O[C@]1(C(C)=O)CC[C@H]2[C@@H]3C=C(C)C4=CC(=O)CC[C@]4(C)[C@H]3CC[C@@]21C` [Megestrol acetate], the “Buttocks size, clinical appearance” value (patient) was “the buttocks appear clinically larger”, the “Relative skin fold thickness of left and right flanks” value (C57BL/6J; examined on Day 24) was “asymmetric, with thicker skin folds on the treated flanks compared to the untreated flanks” and the “Local increase in subcutaneous fat / asymmetry between flanks” value (C57BL/6J) was “exhibited local increases in subcutaneous fat”. For the same compound, the “Thickness of skin fold, right (treated) flank” value (C57BL/6J; representative mouse, 24 days of treatment, left (untreated) flank about 2 mm) was “about 4 mm”.

In the case of `CN(CCOc1ccc(CC2SC(=O)NC2=O)cc1)c1ccccn1` (centres unmarked) [Rosiglitazone], the “Increase over Placebo in subcutaneous fat thickness, MEAN” value (Gottingen minipigs) is reported as 48%, the “Increase over Placebo in subcutaneous fat thickness, MEAN” value (Gottingen minipigs; listed as rosiglitazone) is reported as 48% and the Tolerability (Gottingen minipigs; minipig, in vivo) is reported as “well tolerated, with no evidence of skin irritation or other clinical observations”. The “Peak plasma concentration, lower than for oral (systemic) therapy” value [1] was “about 3400 fold” and the “Plasma exposure, lower than for oral (systemic) therapy” value [1] was ~1300 fold.

Reference: patent US8883834B2, “Methods and compositions for locally increasing body fat” (Topokine Therapeutics, Inc., priority 2012, dated 2014)
